This note sets out measurements from patent US5849777A, “Cell differentiation induction with mevalonate and mevalonolactone derivatives” (University of New Mexico, priority 1995, dated 1998).

Read-outs that look alike come from different tables or passages of the source.

In experiment [1] the test system is Human peripheral blood leukocytes. Kind of experiment: IgG production by human peripheral blood leukocytes (HPBL) in vitro. It counts as cell-based. To be noted: for immune enhancement (in words): Examples II and Table I; for Inhibitory Concentration (concentration inhibiting nonspecific IgG production below normal production): HPBL, additional 90 h culture. Here is the method:
Human peripheral blood leukocytes were cultured in a standard tissue culture medium. Aliquots of these cultured cells (1,000,000 cells/ml medium) were cultured for 6 hours, and the specified amount of Formula II compound was added; the cells were then cultured for an additional 90 hours. Sheep red blood cells (SRBC) conditioned with class-specific (IgG) goat anti-human antiserum (1:400) for 2 hours; then guinea pig complement (2%) for 2 hours were conjugated to Protein A as described in detail in Radioimaging and Radioimmunotherapy, Eds. S. W. Burchiel and B. A. Rhodes, Elsevier Science Publishing; New York, 1983, pp. 125-127, incorporated herein by reference.
1. Concentration inhibiting nonspecific IgG production below normal production.

The target of experiment [2] is T1, rat liver HMG-COA reductase (Rattus norvegicus, UniProt P51639).
T1 construct: rat liver HMG-COA reductase activity; from tissue; host or cells: rat liver
T1 sequence (P51639 1-887): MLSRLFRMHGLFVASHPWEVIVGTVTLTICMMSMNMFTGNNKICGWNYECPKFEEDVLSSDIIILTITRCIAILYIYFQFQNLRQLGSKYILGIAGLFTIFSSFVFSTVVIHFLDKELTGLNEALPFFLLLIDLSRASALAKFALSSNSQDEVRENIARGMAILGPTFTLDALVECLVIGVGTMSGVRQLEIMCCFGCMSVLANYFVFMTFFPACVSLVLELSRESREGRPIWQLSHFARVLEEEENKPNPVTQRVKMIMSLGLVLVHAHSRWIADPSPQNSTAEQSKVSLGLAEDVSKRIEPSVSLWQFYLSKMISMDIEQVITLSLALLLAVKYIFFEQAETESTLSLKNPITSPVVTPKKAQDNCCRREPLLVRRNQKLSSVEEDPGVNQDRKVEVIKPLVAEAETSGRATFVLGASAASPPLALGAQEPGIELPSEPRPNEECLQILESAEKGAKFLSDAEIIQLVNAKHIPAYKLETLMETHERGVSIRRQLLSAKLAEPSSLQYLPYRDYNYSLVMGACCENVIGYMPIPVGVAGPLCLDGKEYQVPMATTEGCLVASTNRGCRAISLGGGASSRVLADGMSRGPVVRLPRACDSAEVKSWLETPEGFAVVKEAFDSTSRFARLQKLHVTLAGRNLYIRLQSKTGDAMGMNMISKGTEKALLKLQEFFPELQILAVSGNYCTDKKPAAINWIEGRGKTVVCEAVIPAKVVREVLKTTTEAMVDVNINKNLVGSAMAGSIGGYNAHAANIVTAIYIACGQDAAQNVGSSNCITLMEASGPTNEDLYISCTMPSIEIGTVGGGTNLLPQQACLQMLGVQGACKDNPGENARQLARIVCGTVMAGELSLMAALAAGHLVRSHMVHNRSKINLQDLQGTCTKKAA
Kind of experiment: inhibition of rat liver HMG-CoA reductase activity. The experiment is classed as biochemical. The source says:
While a number of the compounds of the Formula I are known HMG-CoA reductase inhibitors, there is no apparent correlation between HMG-CoA reductase inhibitory activity and promotion of differentiation activity according to the invention. […] Accordingly, useful guidelines for selecting compounds having optimal differentiation-promoting activity according to the invention broadly comprise selecting compounds of the Formula I having the specified stereochemical configuration and an in vitro immunological activity as set forth in the in vitro assay of Example II, of at least about 3-fold.

Experiment [3] has as its system Canine glioma cells. Kind of experiment: cytotoxicity as simple survival (T50%). To be noted: Canis lupus familiaris, Glioma cell, read-out: T 50%. It counts as cell-based. Here is the method: (§1) Cytotoxicity was determined as a function of simple survival (T50 %), adherence (ADH50 %) and thymidine incorporation (I50%) of the cells.
(§2) Estimates of the 50% inhibitory concentrations of the various drugs tested on simple survival (T50%) and adherence (ADH50%) for canine glioma cells.

Experiment [4] concerns Canine glioma cells. Briefly: inhibition of adherence (ADH50%). To be noted: Canis lupus familiaris, Glioma cell. It counts as cell-based. Here is the method: as §1, §2
The test system of experiment [5] is Canine glioma cells. Kind of experiment: inhibition of thymidine incorporation (I50%). To be noted: Canis lupus familiaris, Glioma cell. The experiment is classed as cell-based. Here is the method: as §1
Estimates of the I50% of the various drugs tested on thymidine incorporation of canine glioma cells in culture.
On the technique in general: Incorporation of labelled thymidine or its analogues reports DNA synthesis.

The subject of experiment [6] is Canine glioma cells. Kind of experiment: effect on tumor cell generation time, canine glioma. The conditions noted are these: 10 nM. It counts as cell-based. Here is the method:
The cells were harvested every 72 hours after the controls had reached 85% confluency. Generation time (Tg) was determined as the number of hours required for the cell population to double.
Mean of triplicate determinations. Canine glioma cells were grown under conditions to promote exponential growth characteristics; 2×10^5cells in a T-25 flask. The cells were harvested every 72 hours after the controls had reached approximately 85% confluency. The drug was added at the initiation of culture in DMSO, the control cultures had just DMSO. The drug concentration was adjusted with DMSO so that the final concentration of DMSO was always 0.5%.

The test system of experiment [7] is human colon carcinoma cell line (LS-174). Briefly: effect on tumor cell generation time, human colon carcinoma. The experiment is classed as cell-based. Here is the method: The procedure of Example VA, above, was repeated except a human colon carcinoma cell line (LS-174) was used instead of the canine glioma cell line.
Mean of triplicate determinations. LS-174 cells (human colon carcinoma) were grown under conditions to promote exponential growth characteristics; 2×10^5 cells in a T-25 flask. The cells were harvested every 72 hours after the controls had reached approximately 85% confluency. The drug was added at the initiation of culture in DMSO, the control cultures had just DMSO. The drug concentration was adjusted with DMSO so that the final concentration of DMSO was always 0.5%.

A further experiment relates to CG (canine glioma) cells. Briefly: tumor-specific antibody production in vivo (anti-CG IgG titer). Further details: species or system dog. From the text: Titer of CG-specific antibody was compared to control [no administration of compound IIa' and no implantation of CG (canine glioma) cells]. […] This increase in titer continued with time until tumor regression was noted by independent measurement (NMR evaluation, below).
The results are particularly striking as the experimental tumor (brain glioma) is generally considered to enjoy a privileged position beyond the blood/brain barrier, substantially beyond the reach of the humoral immune system. Experimental protocols are described in detail below (FIGS. 7-9, Example VII).

In the next experiment the test system is CG tumor. Kind of experiment: chromium-release cell-mediated lympholysis (CML) vs CG tumor. The experiment is classed as in vivo, dog. From the text: Cellular immune response reflected the results reported in III, 1 above. […] This also is in the absence of CG antigen exposure. […] Thus both cellular and humoral immunity appear to be modulatable in the absence of antigen by the compounds of the instant invention.

Setting [8] is: read-out: IC50 (concentration for 50% inhibition of rat liver HMG-COA reductase activity), Table I.

In the case of `CC(C)c1nc(-c2ccccc2)n(-c2ccc(F)cc2)c1/C=C/[C@@H](O)C[C@@H](O)CC(=O)O` [IId, reference compound], the activation at 0.1 µM in experiment [1] (Homo sapiens, Leukocyte, 90 h, 100 nM, read-out: Stimulation of IgG Production) was determined as 320%.
For the molecule `CC(C)c1nc(-c2ccccc2)n(-c2ccc(F)cc2)c1/C=C/[C@H](O)C[C@@H](O)CC(=O)O` (relative stereo) [Compound IIe'], the “Stimulation of IgG Production” value in [1] (1&100 nM) was found to be 1990%. Also, the activation at 0.0001 µM in experiment [1] (Homo sapiens, Leukocyte, 90 h, 100 pM, read-out: Stimulation of IgG Production) was below 350%. Moreover, the IC50 was 0.003 µM in [2] (Example IV, read-out: IC50 (HMG-CoA reductase)); 0.003 µM in experiment [2] (setting [8]); 0.75 µM in the experiment on Canine glioma cells [3] (24 h exposure); 0.8 µM with Canine glioma cells [3] (72 h exposure); 0.9 µM with Canine glioma cells [3] (96 h exposure); 0.075 µM in the experiment with Canine glioma cells [4] (24 h exposure). Further, the IC50 with Canine glioma cells [4] (72 h exposure) is 0.07 µM; with Canine glioma cells [4] (96 h exposure) it was 0.075 µM; with Canine glioma cells [5] (24 h exposure, read-out: I50%) it was 0.05 µM; in the experiment with Canine glioma cells [5] (48 h exposure, read-out: I50%), 0.075 µM; in the experiment on Canine glioma cells [5] (72 h exposure, read-out: I50%) it was 0.08 µM; with Canine glioma cells [5] (96 h exposure, read-out: I50%), 0.05 µM. Also, the IC50 in the experiment on Canine glioma cells [5] (Table V, all exposure times, read-out: I50% (thymidine incorporation into DNA)) fell in the range of 0.05 to 0.08 µM. In the experiment with Canine glioma cells [6], the “contact inhibition as the cells approached confluency” value is given as “showed evidence of contact inhibition”. Also, the “% CHANGE (Tg)” value in the experiment with Canine glioma cells [6] (72 × 2 h) came out at 129%; in the experiment on Canine glioma cells [6] (72 × 3 h), 180%; in the experiment on Canine glioma cells [6] (72 × 4 h), 155%; in the experiment with Canine glioma cells [6] (72 h) it was 136%; in experiment [7] (10 nM, 72 × 2 h), 400%; in [7] (10 nM, 72 × 3 h) it was 416%. The “% CHANGE (Tg)” value in experiment [7] (10 nM, 72 × 4 h) is 414%; in [7] (10 nM, 72 h), 320%. Moreover, the Tg is 24.0 h with Canine glioma cells [6] (72 × 2 h); 33.4 h in the experiment with Canine glioma cells [6] (72 × 3 h (three passages), control 18.6 h); 28.9 h in the experiment with Canine glioma cells [6] (72 × 4 h); 25.3 h in the experiment with Canine glioma cells [6] (72 h); 106.2 h in experiment [7] (10 nM, 72 × 2 h); 110.3 h in experiment [7] (10 nM, 72 × 3 h (three passages), control 26.5 h). The Tg was determined as 109.6 h in experiment [7] (10 nM, 72 × 4 h) and 84.9 h in experiment [7] (10 nM, 72 h). In addition, the “slowing of the growth rate” value in the experiment with Canine glioma cells [6] (three passages) came to 1.8 fold. Further, in experiment [7] (10 nM, three passages), the “prolongation of generation time” value amounted to 4.16 fold. Also, in experiment [7] (drug withdrawn, two passages), the “generation time after drug withdrawn” value was “returned to control levels”.
As for `CC[C@H](C)C(=O)O[C@H]1C[C@@H](C)C=C2C=C[C@H](C)[C@H](CC[C@@H]3C[C@@H](O)CC(=O)O3)[C@H]21` [lovastatin, reference compound], the “immune enhancement (in words)” value in experiment [1] was “no immune enhancement”.
As for `CC(C)c1nc(-c2ccccc2)n(-c2ccc(F)cc2)c1/C=C/[C@H](O)C[C@H](O)CC(=O)O` [IIa], the “Inhibitory Concentration (concentration inhibiting nonspecific IgG production below normal production)” value in [1] is “none found”. Moreover, in experiment [2] (Table I), the IC50 is 3.15 µM. The CG-specific antibody entry with CG (canine glioma) cells (at tumor regression, within a few days) is listed as “reverted to baseline control levels”. Further, in the experiment on CG (canine glioma) cells (following implantation of the CG tumor cells), the “CG-specific antibody (IgG) production” value is “increased significantly”. For the same molecule, the “titers of antibody over the control antibody titer” value with CG (canine glioma) cells (in the absence of antigen) is recorded as “titers of antibody increased over the control antibody titer significantly”. The CML reactivity result in the experiment on CG tumor (after 5 weeks, tumor totally regressed) was “returned to baseline”; in the experiment with CG tumor (after a few days of exposure to the CG tumor implant) it was “large increase in the CML reactivity”. Besides, the “CG-specific CML” value in the experiment on CG tumor (after 14 days of administration, I.P., M, W, F) is “only baseline levels of CG-specific CML were present”. Moreover, in the experiment on CG tumor (after an additional 2 months, absence of CG antigen exposure), the CML entry is on record as “significant increase in CML”.
Turning to `CC(C)c1nc(-c2ccccc2)n(-c2ccc(F)cc2)c1/C=C/[C@@H](O)C[C@H](O)CC(=O)O` [IIb], the “Inhibitory Concentration (concentration inhibiting nonspecific IgG production below normal production)” value in [1] is “none found”. For the same molecule, the IC50 in experiment [2] (setting [8]) is 1.35 µM.
As to `CC[C@H](C)C(=O)O[C@H]1CCC=C2C=C[C@H](C)[C@H](CC[C@@H]3C[C@@H](O)CC(=O)O3)[C@H]21` [compactin, reference compound], the “immune enhancement (in words)” value in experiment [1] is reported as “no immune enhancement”. In addition, the IC50 was determined as 0.5 µM in the experiment with Canine glioma cells [3] (24 h exposure); 0.2 µM with Canine glioma cells [3] (72 h exposure); 0.35 µM in the experiment with Canine glioma cells [3] (96 h exposure); 0.05 µM in the experiment on Canine glioma cells [4] (24 h exposure); 0.075 µM with Canine glioma cells [4] (72 h exposure); 0.075 µM in the experiment on Canine glioma cells [4] (96 h exposure). Moreover, the IC50 in the experiment with Canine glioma cells [5] (24 h exposure, read-out: I50%) is 0.1 µM; in the experiment on Canine glioma cells [5] (48 h exposure, read-out: I50%) it was 0.075 µM; with Canine glioma cells [5] (72 h exposure, read-out: I50%), 0.03 µM; in the experiment with Canine glioma cells [5] (96 h exposure, read-out: I50%), 0.05 µM.
